The target in one experiment is Cannabinoid receptor 2 (Mus musculus, UniProt P47936). Kind of experiment: Compound was evaluated for its ability to displace specifically bound [3H]CP-55940 from a Cannabinoid receptor 2 enriched mouse spleen preparation. It is filed as tissue-based.
The target in a further experiment is Cannabinoid receptor 1 (Rattus norvegicus, UniProt P20272). Kind of experiment: Compound was evaluated for its ability to displace specifically bound [3H]CP-55940 from a Cannabinoid receptor 1 enriched rat brain microsome preparation.
Cannabinoid receptor 1, sequence (P20272 whole entry): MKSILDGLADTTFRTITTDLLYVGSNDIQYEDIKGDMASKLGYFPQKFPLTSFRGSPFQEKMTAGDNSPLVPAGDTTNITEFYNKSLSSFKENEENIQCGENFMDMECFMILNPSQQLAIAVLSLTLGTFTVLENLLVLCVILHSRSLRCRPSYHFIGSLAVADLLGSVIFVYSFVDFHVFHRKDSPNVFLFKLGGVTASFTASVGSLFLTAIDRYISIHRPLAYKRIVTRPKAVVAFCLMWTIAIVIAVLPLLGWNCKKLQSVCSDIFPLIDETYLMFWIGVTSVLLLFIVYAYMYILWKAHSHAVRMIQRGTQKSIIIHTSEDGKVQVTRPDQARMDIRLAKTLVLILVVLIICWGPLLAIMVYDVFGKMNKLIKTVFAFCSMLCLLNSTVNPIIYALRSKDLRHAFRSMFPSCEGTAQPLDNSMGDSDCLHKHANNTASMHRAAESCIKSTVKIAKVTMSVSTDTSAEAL

The source of these data is ChEMBL document CHEMBL1129689, “Unsaturated side chain beta-11-hydroxyhexahydrocannabinol analogs” (J Med Chem, 1996).

Cannabinoid receptor 2, sequence (P47936 whole entry): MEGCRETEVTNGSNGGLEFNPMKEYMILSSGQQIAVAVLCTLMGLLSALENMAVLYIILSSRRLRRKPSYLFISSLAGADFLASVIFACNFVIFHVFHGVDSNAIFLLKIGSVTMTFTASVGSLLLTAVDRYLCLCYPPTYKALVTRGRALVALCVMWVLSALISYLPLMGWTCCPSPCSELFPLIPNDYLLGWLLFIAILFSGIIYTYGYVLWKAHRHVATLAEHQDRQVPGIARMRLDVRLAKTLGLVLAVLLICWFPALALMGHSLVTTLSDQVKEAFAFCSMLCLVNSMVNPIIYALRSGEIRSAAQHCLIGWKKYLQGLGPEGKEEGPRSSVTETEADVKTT

For `CCCCCC#Cc1cc(O)c2c(c1)OC(C)(C)[C@@H]1CC[C@@H](CO)C[C@@H]21`, the Ki (as a rule, a dissociation constant, usually derived from enzyme kinetics or from competition with a known ligand) is 61.6 nM on Cannabinoid receptor 2 and 5.8 nM on Cannabinoid receptor 1. In the case of `CCCCC/C=C\c1cc(O)c2c(c1)OC(C)(C)[C@@H]1CC[C@@H](CO)C[C@@H]21`, the Ki at Cannabinoid receptor 2 was determined as 9.5 nM; at Cannabinoid receptor 1, 0.8 nM.

For `CCCCC/C=C/c1cc(O)c2c(c1)OC(C)(C)[C@@H]1CC[C@@H](CO)C[C@@H]21`, the Ki came out at 5.3 nM at Cannabinoid receptor 2 and 1.2 nM at Cannabinoid receptor 1.

For `CCCCCCCc1cc(O)c2c(c1)OC(C)(C)[C@@H]1CC[C@@H](CO)C[C@@H]21`, the Ki at Cannabinoid receptor 2 amounted to 14.3 nM.
